Source: patent US7262269B2, “Method for screening combinational bead library; ligands for cancer cells” (The Regents of University of California, priority 2001, dated 2007)

These substances were tested on epithelial ovarian cancer cell line SKOV-3 (assay: cell-growth-on-bead assay, SKOV-3). Settings: Example 3, cX2GX4GX6X7c library, 24 to 72 hours.
Format: cell-based, human
Protocol: (§1) The ratio of cells to beads is preferably about 10:1, but can range from about 1:1 to 100:1. The suspension of cells 10 and beads 12 is mixed gently for sufficient time to assure contact of beads 12 with suspended cells 10. The culture plates are incubated in a tissue culture incubator at about 4° C. to about 37° C., preferably 37° C., for a period of about 24 to about 72 hours. The suspension of cells 10 and beads 12 may be kept still or mixed, either continuously or intermittently, during the incubation period.
(§2) After the incubation period, beads 12 are observed under a dissecting microscope. […] These beads 14 (referred to as “positive” beads) are removed from the culture plates. A tetrazolium dye that stains live, but not dead, cells can be used to facilitate the identification and removal of the positive beads. If a dye is used, all of the beads are removed after the incubation period and resuspended in fresh medium in new culture plates. The dye is added. The plates are then incubated in a tissue culture incubator at 25° C. to 37° C. for about one to four hours. Live cells 10 convert the dye to a colored metabolite, which results in beads 14 with attached cells appearing colored, allowing them to be easily distinguished from beads 16 without attached cells, which appear colorless, as shown in FIG. 1E. Other dyes that stain live cells can also be used. After positive beads 14 are removed from the plates, attached cells 10 are separated from the beads. This can be done with the addition of a chaotrophic agent, such as 8 M guanidine hydrochloride, or a protease, such as trypsin.
(§3) About 150,000 peptide beads were mixed with approximately one million suspended cells in 15 ml of culture medium and distributed into six 3-cm culture plates. The culture plates were agitated gently at about 100 rpm for about 10 minutes. The culture plates were then incubated in a tissue culture incubator at 37° C. for about 24 hours to about 72 hours.
(§4) A dissecting microscope was used to examine the beads at about 24, 48, and 72 hours. After about 24 to 72 hours, beads with a monolayer of cells were observed.
(§5) At the end of the incubation period, all of the beads were removed and resuspended in fresh medium in a new culture plate. An MTT ([3-(4,5-dimethylthiazol-2-yl)-2,5-diphenyl] tetrazolium bromide) (Sigma, St. Louis, Mo.) dye solution was added to each culture plate to a final concentration of 0.5 mg/ml. The plates were incubated in a tissue culture incubator at 37° C. for about two hours to allow the purple color to develop. Each purple-colored peptide bead was isolated and removed. The attached cells were separated from the beads with 8 M guanidine hydrochloride.
(§6) The amino acid sequence of each isolated peptide bead was determined using an automated Procise 494 protein sequencer (Applied Biosystems, Foster City, Calif.). Several consensus peptide sequences were determined, one of which was cNGRGEQc. This peptide was resynthesized on beads, which were then rescreened with the A549 cells using the assay of the invention.
(§7) The method as described in Example 1 was performed, except that a different combinatorial library was used and different types of epithelial cancer cells were used. A one-bead-one-compound combinatorial peptide library was prepared according to the method described in Example 1, with the following formula: cX2GX4GX6X7c, where “c” is D-cysteine; “G” is glycine; X2 is D,d,N, n, S,Q,q,T, HoSer, Cit, E, e, HoCit, Hyp, Aad, Lys(Ac), A, 4-Pal, D-3-Pal, Pra, D-Pra, Y, Aib, M, Phe(4-CN), Tyr(3-NO2), Tyr(Me), Phe(4-NO2), Bug, Ach, Tyr(3,5-I), Aic, Phe(3-Cl), Chg, Bta, Bpa, Phe(3,4-Cl), Hyp(Bzl), or Cha; and X4, X6 and X7 are N, S, Q, T, HoSer, Cit, HoCit, Hyp, H, A, Pal, D-3-Pal, Pra, R, Y, Aib, Abu, P, M, V, Nva, Tyr(3-NO2), W, Phg, Phe(4-NO2), Bug, I, Ach, L, Nle, Phe(4-Me), Aic, Phe(3-Cl), HoPhe, Chg, Bta, Bpa, 2-Nal, 1-Nal, Phe(3,4-Cl), Hyp(Bzl), or Cha. […]

Substance	identified as ligand (positive bead with monolayer of cells)
c-d-G-Phe(4-Me)-G-T-Pra-c	identified
c-d-G-Tyr(3NO2)-G-Pra-G-c	identified
c-d-G-Cha-G-1-T-c	identified
cdGLGFTc	identified
cdGIGPQc	identified
c-d-G-Phg-G-P-F-c	identified
c-d-G-Nva-G-Phe (4-CN)-F-c	identified
c-d-G-(4-Pal)-G-Tyr(3-NO2)-Cha-c	identified
c-d-G-Cit-G-Hyp(Bzl)-M-c	identified

Same assay, conditions: Example 4, cX2GX4GX6X7c library, peptide concentration on bead surface 20% of Example 3

Substance	identified as ligand (positive bead with monolayer of cells)
c-d-G-A-G-Bta-L-c	identified
c-d-G-Nle-G-Phe(3-Cl)-S-c	identified
c-d-G-L-G-S-Bpa-c	identified
c-d-G-Tyr(3-NO2)-G-Phg-M-c	identified
c-d-G-Tyr(3-NO2)-G-Nle-H-c	identified

What follows are substances tested on ovarian cancer cell line CaOV3 (assay: cell-growth-on-bead assay, CaOV3). Settings: Example 2, cXXXXXXc library, 24 to 72 hours.
Format: cell-based, human
Protocol: as §1, §2, §3, §4, §5, §6
The method as described in Example 1 was performed, except that the combinatorial peptide library was screened with a different type of epithelial cancer cells, the ovarian cancer cell line CaOV3 (American Type Culture Collection).
(§8) As described in Example 1, after culturing for about 24 to 72 hours, beads with a monolayer of cells were observed. These positive beads were isolated and the amino acid sequence of each positive bead was determined, as described in Example 1.
The method as described in Example 1 was performed, except that a different combinatorial library was used and different types of epithelial cancer cells were used. The peptide library of Example 3 was used, except that the concentration of peptides on the surface of each bead was 20% of that used in Example 3, resulting in an increase in screening stringency. […]

Substance	identified as ligand (positive bead with monolayer of cells)
cDGWGPNc	identified
cDGLGDDc	identified

Same assay, conditions: Example 4, cX2GX4GX6X7c library, peptide concentration on bead surface 20% of Example 3

Substance	identified as ligand (positive bead with monolayer of cells)
c-d-G-Tyr(3-NO2)-G-F-L-c	identified
cdGMGSAc	identified
c-D-G-Cha-G-Hyp-N-c	identified
c-d-G-M-G-S-Cha-c	identified
c-d-G-Chg-G-Hyp-N-c	identified
c-d-G-Tyr(3-NO2)-G-i-Pra-c	identified
c-d-G-M-G-HoSer-Nle-c	identified

The substances below were run on epithelial cells (assay: secondary library screening and structure/activity relationship studies). Settings: not given.
Format: cell-based
Description: Through additional secondary library screening and structure/activity relationship studies, other ligands for epithelial cells have been identified, including the following: • c-D-G-Chg-G-A-N-c; c-N-G-Bpa-G-Q-M-c; c-N-G-Acdt-G-D-Bpa-c; cNGTGDGc; • cNGQGAGc; cNGYGSFc; c-N-G-Nle-G-Y-G-c; cNGMGAYc; cNGQGEQc; • cRGNGTDc; cNGQGPLc; cNGLGRSc; cDGMGSNc; cNGLGQYc; and • cNGYGTTc.

Substance	identified as ligand for epithelial cells
cNGLGQYc	identified
c-N-G-Bpa-G-Q-M-c	identified
cNGYGSFc	identified
cNGLGRSc	identified
cNGTGDGc	identified
cNGYGTTc	identified
c-N-G-Acdt-G-D-Bpa-c	identified
cNGQGAGc	identified
cNGMGAYc	identified
c-D-G-Chg-G-A-N-c	identified
cRGNGTDc	identified
cNGQGEQc	identified
cDGMGSNc	identified
c-N-G-Nle-G-Y-G-c	identified
cNGQGPLc	identified

The substances below were run on non-epithelial glioblastoma brain cancer cell line A-172 (assay: cell-growth-on-bead assay, A-172). Settings: Example 5, library of Example 3, 24 to 72 hours.
Format: cell-based, human
Protocol: as §1, §2, §3, §4, §5, §6
The method as described in Example 1 was performed, except that a different combinatorial library was used and non-epithelial cancer cells were used. A one-bead-one-compound combinatorial peptide library was prepared as described in Example 3.
The peptide library was screened with the non-epithelial glioblastoma brain cancer cell line A-172 (American Type Culture Collection).
as §8

Substance	identified as ligand (positive bead with monolayer of cells)
c-e-G-y-G-Hyp-W-c	identified
cDGWGPNc	identified
c-d-G-(4-Pal)-G-Phe (4-Me)-T-c	identified
c-N-G-Nle-G-(4-Pal)-M-c	identified
c-e-G-L-G-Nle-M-c	identified
c-D-G-L-G-P-HoPhe-c	identified
cDGLGDDc	identified
c-e-G-N-G-S-(1-Nal)-c	identified

What follows are substances tested on epithelial ovarian cancer cell line ES-2 (assay: cell-growth-on-bead assay, ES-2). Settings: Example 3, cX2GX4GX6X7c library, 24 to 72 hours.
Format: cell-based, human
Protocol: as §1, §2, §3, §4, §5, §6, §7

Substance	identified as ligand (positive bead with monolayer of cells)
c-d-G-L-G-HoSer-T-c	identified
cdGLGYYc	identified
c-d-G-Phe(4Me)-G-P-Cha-c	identified
c-d-G-Phe(3-Cl)-G-Q-F-c	identified
c-d-G-Cha-G-HoCit-S-c	identified
c-d-G-V-G-Hyp-HoSer-c	identified
c-d-G-Tyr(Me)-G-T-M-c	identified

Same assay, conditions: Example 4, cX2GX4GX6X7c library, peptide concentration on bead surface 20% of Example 3

Substance	identified as ligand (positive bead with monolayer of cells)
cdGLGWGc	identified
c-d-G-Phe(4-Me)-G-Aib-S-c	identified
c-d-G-Cha-G-Bta-Q-c	identified
c-d-G-Cha-G-HoCit-Q-c	identified
c-d-G-Aib-G-Aib-N-c	identified
c-d-G-Aib-G-P-S-c	identified
c-d-G-HoCit-G-P-Q-c	identified
c-d-G-Bta-G-Hyp-Y-c	identified
